For one series, the target named is T1, Human Serotonin 5-HT6R (Homo sapiens, UniProt P50406).
T1 construct: host or cells: 1321N1 (frozen recombinant cells)
The experiment in a line: 5-HT6R functional assay, antagonistic mode (cAMP induced by 5-CT, 1321N1 cells). Type of series: cell-based. The procedure: The properties of compounds to inhibit cAMP production induced by a 5-HT6R agonist 5-CT (1000 nM) was evaluated. Compounds were tested in triplicate at eight concentrations (10^−11–10^−4 M). The level of cAMP was measured using frozen recombinant 1321N1 cells expressing the Human Serotonin 5-HT6R (PerkinElmer). Total cAMP was measured using the LANCE cAMP Detection Kit (PerkinElmer), according to the manufacturer’s instructions. For quantification of cAMP levels, 2000 cells/well ([…]) were incubated with a mixture of compounds ([…]) for 30 min at room temperature in a 384-well white opaque microtiter plate. After incubation, the reaction was stopped and cells were lysed by the addition of […] of working solution ([…] ULight-anti-cAMP) for 1 h at room temperature. Time-resolved fluorescence resonance energy transfer (TR-FRET) was detected by an Infinite M1000 Pro (Tecan) using instrument settings from the LANCE cAMP Detection Kit manual. […] The agonistic properties of compounds were determined with an analogous procedure, but without stimulation with 5-CT [10, 36].

A further series can be described thus: in vitro. Particulars: PAMPA, pH 7.4. For orientation: In PAMPA a lipid-coated filter parts donor from acceptor wells.

In general, Kb refers to the equilibrium dissociation constant of an antagonist, usually derived from a functional assay. By Papp is commonly meant the rate of passage across a membrane or cell layer, normalised by area and donor concentration.

T1 sequence (P50406 whole entry): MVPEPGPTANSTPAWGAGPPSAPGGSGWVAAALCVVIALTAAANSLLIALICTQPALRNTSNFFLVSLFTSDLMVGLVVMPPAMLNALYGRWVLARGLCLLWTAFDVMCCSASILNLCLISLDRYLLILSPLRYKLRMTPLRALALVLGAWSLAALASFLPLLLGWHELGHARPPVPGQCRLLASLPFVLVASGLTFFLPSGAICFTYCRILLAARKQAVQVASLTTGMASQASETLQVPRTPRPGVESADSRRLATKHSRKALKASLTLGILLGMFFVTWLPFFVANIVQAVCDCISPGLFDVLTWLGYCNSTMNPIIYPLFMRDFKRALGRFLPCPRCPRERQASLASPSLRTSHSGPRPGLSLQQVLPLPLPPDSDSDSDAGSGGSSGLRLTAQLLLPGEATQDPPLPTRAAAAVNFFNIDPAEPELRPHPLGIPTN

In the case of `Brc1ccc2c(CNCCc3c[nH]c4ccccc34)c[nH]c2c1` [Compound 15], the “5-HT6R function in words (antagonism)” value on Human Serotonin 5-HT6R is on record as “antagonist”. Also, on Human Serotonin 5-HT6R (antagonistic mode, 5-CT 1000 nM, read-out: 5-HT6 Kb), the Kb was 131 nM. Also, the “PAMPA Pe ± SD” value (5 h, 200 µM, pH 7.4) is given as 2.42 10^−6 cm/s. Further, the permeability in words entry (PAMPA) was “rather low Pe value but still higher than norfloxacin”. The Papp at 5 h, 200 µM in the series “in vitro” is 2.42 ± 0.92 ×10⁻⁶ cm/s.

These data come from paper PMC8347595, “N-Skatyltryptamines—Dual 5-HT6R/D2R Ligands with Antipsychotic and Procognitive Potential” (Molecules, 2021).
